Laboratory results as given in ChEMBL document CHEMBL1144155, “Synthesis of 3-alkyl naphthalenes as novel estrogen receptor ligands” (Bioorg Med Chem Lett, 2008).

What was measured:
[1] = molecular target: Estrogen receptor beta (Homo sapiens, UniProt Q92731)
[2] = molecular target: T1, Estrogen receptor (Homo sapiens, UniProt P03372)
T1 sequence (P03372 whole entry): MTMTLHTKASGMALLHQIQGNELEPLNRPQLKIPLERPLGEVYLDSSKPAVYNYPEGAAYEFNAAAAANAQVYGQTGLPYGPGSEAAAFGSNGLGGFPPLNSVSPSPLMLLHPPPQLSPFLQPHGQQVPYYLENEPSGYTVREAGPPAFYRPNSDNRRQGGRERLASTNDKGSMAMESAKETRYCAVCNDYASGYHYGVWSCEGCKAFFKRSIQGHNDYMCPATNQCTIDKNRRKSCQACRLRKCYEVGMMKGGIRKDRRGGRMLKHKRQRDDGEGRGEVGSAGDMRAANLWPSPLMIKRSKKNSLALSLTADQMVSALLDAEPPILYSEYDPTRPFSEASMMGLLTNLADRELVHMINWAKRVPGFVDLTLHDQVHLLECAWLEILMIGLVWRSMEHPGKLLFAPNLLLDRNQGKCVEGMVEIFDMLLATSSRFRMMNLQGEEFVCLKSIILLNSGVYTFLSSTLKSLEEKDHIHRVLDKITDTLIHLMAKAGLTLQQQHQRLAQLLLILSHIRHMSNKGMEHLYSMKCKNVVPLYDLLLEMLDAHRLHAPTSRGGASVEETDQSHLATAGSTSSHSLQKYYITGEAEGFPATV

Sequence of Estrogen receptor beta (Q92731 whole entry): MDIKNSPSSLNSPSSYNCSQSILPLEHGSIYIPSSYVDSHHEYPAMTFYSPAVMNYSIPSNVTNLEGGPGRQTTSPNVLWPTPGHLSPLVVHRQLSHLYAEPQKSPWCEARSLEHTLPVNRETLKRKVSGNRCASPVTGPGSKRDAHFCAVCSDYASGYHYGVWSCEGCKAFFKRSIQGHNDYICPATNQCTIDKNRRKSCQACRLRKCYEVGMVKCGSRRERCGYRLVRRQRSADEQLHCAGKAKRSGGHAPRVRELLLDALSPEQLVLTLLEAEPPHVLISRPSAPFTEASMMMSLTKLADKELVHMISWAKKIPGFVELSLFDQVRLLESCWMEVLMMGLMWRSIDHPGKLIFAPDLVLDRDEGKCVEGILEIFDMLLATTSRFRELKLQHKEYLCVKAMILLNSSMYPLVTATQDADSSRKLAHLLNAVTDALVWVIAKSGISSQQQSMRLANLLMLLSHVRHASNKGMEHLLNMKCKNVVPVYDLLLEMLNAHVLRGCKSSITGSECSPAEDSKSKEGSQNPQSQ

Row | SMILES | Ki [1] [nM] | Ki [2] [nM]
1 | CCCCc1cc2ccccc2c(Oc2ccc(/C=C/C(=O)O)cc2)c1-c1ccc(OC)cc1 | 162 | 158
2 | CCCCc1cc2ccccc2c(Oc2ccc(/C=C/C(=O)O)cc2)c1-c1ccccc1 | 170 | 977
3 | O=C(O)/C=C/c1ccc(Oc2c(-c3ccccc3)c(C3CC3)cc3cc(O)ccc23)cc1 | 16 | 60
4 | COCc1cc2ccccc2c(Oc2ccc(/C=C/C(=O)O)cc2)c1-c1ccccc1 | 501 | 692
5 | CCCCCc1cc2cc(O)ccc2c(Oc2ccc(/C=C/C(=O)O)cc2)c1-c1ccccc1 | 3 | 2

More lines, in order of falling Ki [1], values ahead:

Row | Ki [1] [nM] | Ki [2] [nM] | SMILES
6 | 110 | 724 | CCCCc1cc2ccccc2c(Oc2ccc(/C=C/C(=O)O)cc2)c1-c1ccc(F)cc1
7 | 48 | 52 | CCCCc1cc2ccccc2c(Oc2ccc(/C=C/C(=O)O)cc2)c1-c1ccc(O)cc1
8 | 30 | 55 | CCCCCCCCc1cc2cc(O)ccc2c(Oc2ccc(/C=C/C(=O)O)cc2)c1-c1ccccc1
9 | 22 | 28 | CC(C)Cc1cc2cc(O)ccc2c(Oc2ccc(/C=C/C(=O)O)cc2)c1-c1ccccc1
10 | 4 | 4 | CCCCc1cc2cc(O)ccc2c(Oc2ccc(/C=C/C(=O)O)cc2)c1-c1ccccc1
